According to patent publication US10273442B1, “Device and method for concomitant ejection and suction of perfusate” (priority 2015, dated 2019):
“Also recorded” adds a separate entry of the source.

Key:
Type in all cases: cell-based, rat
[1] = system: LII stellate cells in MEA; experiment: Spontaneous postsynaptic currents (sEPSCs, sIPSCs) in LII stellate cells of MEA after focal application of compounds to PrS via CESOP, voltage-clamp in acute brain slices; details: for percentage reduction in sIPSC frequency following application of the drug: NBQX 10 μM focally to PrS; for average sIPSC frequency / average sEPSC amplitude / average sEPSC frequency: glutamate 100 μM then NBQX 10 μM focally to PrS, mean ±SEM; for average sIPSC frequency: holding 0 mV; for average sEPSC amplitude / average sEPSC frequency: holding -70 mV
Protocol: (§1) Sprague-Dawley rats (male; n=11 epileptic, n=15 controls) from postnatal (P) days 40 to 88 were used in this study. All experiments were carried out in accordance with the National Institute of Health Guide for the Care and Use of Laboratory Animals and were approved by the Florida State University Institutional Animal Care and Use Committee. Rats were made epileptic according to previously described protocols for bringing up the pilocarpine model of TLE. Briefly, rats were treated with pilocarpine (P41, 141±2 g; 380 mg/kg i.p.) 20 min after atropine methylbromide (5 mg/kg i.p.). Diazepam (10 mg/kg i.p.) was administered 2 h after the onset of status epilepticus and repeated as needed. Following recovery from status epilepticus, rats were video monitored (40 h/wk) for spontaneous seizures. Animals used for electrophysiological experiments were confirmed epileptic, displaying frank spontaneous recurrent seizures scored 3 or greater on the Racine scale (Racine 1972) on two or more observations during the 40 h/wk video monitoring. Recordings from epileptic animals were made on average 39 days (P80) post status epilepticus (range: 25-47 days, P66-P88), with initial seizures observed between 5 and 29 days post status. Control groups consisted of naive rats that were on average P70 (range: P49-P91).
(§2) Rats were deeply anesthetized with urethane (1.5 g/kg ip) before being decapitated. Following decapitation, the brain was quickly removed from the skull before being placed in a chilled (4° C.) low-Ca^2+, low-Na^+“cutting solution” containing (in mM) 230 sucrose, 10 D-glucose, 26 NaHCO3, 2.5 KCl, 1.25 NaH2PO4, 10 MgSO4, and 0.5 CaCl2 equilibrated with a 95%-5% mixture of O2 and CO2. After removing the cerebellum and rostral half of the brain, a 10-15° semi-horizontal cut (in a ventral-caudal to dorsal-rostral plane) was made to the dorsal part of the cortex with respect to the horizontal plane (FIG. 2E). The cut dorsal surface of the brain was adhered to the cutting platform using cyanoacrylate glue. This cutting angle was chosen to increase the likelihood of preserving PrS projections to MEA in acute brain slices, because PrS projections tend to travel to the MEA in a lateroventral orientation. Semi-horizontal slices (400 μm) were prepared using a microslicer (VT1000S, Leica, Germany) in the chilled cutting solution and allowed to equilibrate in oxygenated artificial cerebrospinal fluid (aCSF) containing (in mM) 126 NaCl, 26 NaHCO3, 3 KCl, 1.25 NaH2PO4, 2 MgSO4, 2 CaCl2, 0.25 L-Glutamine, and 10 D-glucose (pH 7.4), first at 32° C. for 1 h and subsequently at room temperature before being transferred to the recording chamber.
(§3) Recordings were obtained at 32±1° C. from neurons in LII and LIII of MEA under Nomarski optics (Zeiss) using a visualized infrared setup (Hamamatsu) that enabled identification of their location within the various lamina. On average, 3.5±0.4 (range: 2-5) and 3.6±0.4 (range: 2-6) cells were recorded per animals in the control and epileptic groups respectively. Patch electrodes were pulled from borosilicate glass (1.5 mm outer diameter, 0.75 mm inner diameter, 3-6 MΩ). The internal solution for voltage-clamp experiments contained (in mM): 120 cesium gluconate, 1 MgCl2, 1 CaCl2, 11 CsCl, 10 HEPES, 2 NaATP, 0.3 NaGTP, 1 QX-314, 11 EGTA, and 20 biocytin (pH 7.3, corrected with Cs-OH; final osmotic concentration, 290 mOsm). The internal solution for current-clamp experiments contained (in mM): 105 potassium gluconate, 30 KCl, 10 HEPES, 10 phosphocreatine, 4 MgATP, 0.3 GTP (pH adjusted to 7.3 with KOH; final osmotic concentration, 300 mOsm).
(§4) Recording conditions were the same for control and epileptic animals. Slices were maintained in oxygenated (95% O2-5% CO2) aCSF, flowing at a rate of 2 ml/min. Drugs were applied focally to superficial PrS via the CESOP technique (FIGS. 4A-4E, described below). […]

[2] = system: LIII pyramidal neurons in MEA; experiment: Spontaneous postsynaptic currents (sEPSCs, sIPSCs) in LIII pyramidal neurons of MEA after focal application of compounds to PrS via CESOP, voltage-clamp in acute brain slices
Protocol: as §1, §2, §3, §4

RS cell in LIII of PrS = experiment: Action potential firing of PrS neurons on local application via CESOP, current-clamp in acute brain slices; details: glutamate 100 μM, 3 min duration
[3] = epileptic rats (pilocarpine model of TLE)
[4] = epileptic conditions, glutamate 100 μM then NBQX 10 μM focally to PrS, holding 0 mV, mean ±SEM

Compound	percentage reduction in sIPSC frequency following application of the drug ([1]; control animals) [%]	average sIPSC frequency ([1]; control rats) [Hz]	average sEPSC amplitude ([1]; control rats) [pA]	average sEPSC frequency ([1]; control rats) [Hz]	average sIPSC frequency [1, 3] [Hz]	average sEPSC amplitude [1, 3] [pA]	average sEPSC frequency [1, 3] [Hz]	percentage reduction in sIPSC frequency following application of the drug ([1]; epileptic rats) [%]	sIPSC frequency ([2]; control animals, glutamate 100 μM then NBQX 10 μM focally to PrS, holding 0 mV, mean ±SEM) [Hz]	reduction in sEPSC frequency following application of NBQX ([2]; control conditions, NBQX 10 μM focally to PrS) [%]	average sEPSC frequency ([2]; control rats, glutamate 100 μM then NBQX 10 μM focally to PrS, holding -70 mV, mean ±SEM) [Hz]	average sIPSC amplitude [2, 4] [pA]	average sIPSC frequency [2, 4] [Hz]	sEPSC frequency ([2]; epileptic rats (pilocarpine model of TLE), glutamate 100 μM then NBQX 10 μM focally to PrS, holding -70 mV, mean ±SEM) [Hz]	action potential discharge of PrS neurons in response to local application (RS cell in LIII of PrS)
NS(=O)(=O)c1cccc2c1c([N+](=O)[O-])cc1[nH]c(=O)c(=O)[nH]c12 [NBQX, 2,3-dioxo-6-nitro-1,2,3,4-tetrahydrobenzo[f]quinoxaline-7-sulfonamide]	22	11.1±1.4	18±1	5.6±1	7.5±1	21±2	4.9±0.8	11	4.5±0.3	30	4.6±0.6	30±2	6.8±0.9	10.5±2	–
N[C@@H](CCC(=O)[O-])C(=O)[O-].[Na+].[Na+] [glutamate, Sodium glutamate]	–	–	–	–	–	–	–	–	–	–	–	–	–	–	sustained action potential discharge; also recorded: reliably evokes action potential firing
